Data: patent US4839379A, “Substituted azabicycloalkanes, the use thereof, pharmaceutical compositions containing them” (Ciba-Geigy Corporation, priority 1982, dated 1989)

Test system: aromatase
Test: aromatase assay according to Graves and Salhanick using human placental microsomes in vitro
Format: biochemical
Method: The novel compounds of formula I and their pharmaceutically acceptable salts have, for example, valuable pharmacological properties as aromatase inhibitors. […] In this experimental method, the formation of water with tritium isotopes and 17β-oestradiol obtained from [1β,2β--^3 H]-testosterone is measured as a result of the action of a compound of the formula I on the formation of the hydrogenated form of the aromatase coenzyme, nicotinamide adenine dinucleotide phosphate (NADPH).

Nc1ccc(C23CC2C(=O)N(CC2CCCCC2)C3=O)cc1 (centres unmarked) [Example 12, 1-(4-Aminophenyl)-3-cyclohexylmethyl-3-azabicyclo[3.1.0]hexane-2,4-dione]
enzyme activity (NADPH content); content of water with radioactive tritium isotopes formed from [1β,2β-3H]-testosterone (compared with measurements without addition of compound): substantially reduces the enzyme activity
diminution of enzyme activity in comparison measurements with known aromatase inhibitors (comparison with aminoglutethimide): substantially greater than with the addition of other known aromatase inhibitors, e.g. aminoglutethimide
